Results from paper PMC10004634 (PLOS ONE, 2023).
Where two headings read alike, the source gives them in different places.

Tests used:
Test in all cases: biochemical
Design in all cases: KINOMEscan scanMAX competition binding, DNA-tagged kinases, qPCR read-out, percent control at 300 nM
LIMK2 = LIMK2 (Homo sapiens, UniProt P53671)
ACVR2B = ACVR2B (Homo sapiens, UniProt Q13705)
NLK = NLK (Homo sapiens, UniProt Q9UBE8)
JNK2 = target: T1, JNK2 (Homo sapiens, UniProt P45984)
T1 construct: gene MAPK9

TNNI3K = TNNI3K (Homo sapiens, UniProt Q59H18)
Sequence of TNNI3K (Q59H18 whole entry): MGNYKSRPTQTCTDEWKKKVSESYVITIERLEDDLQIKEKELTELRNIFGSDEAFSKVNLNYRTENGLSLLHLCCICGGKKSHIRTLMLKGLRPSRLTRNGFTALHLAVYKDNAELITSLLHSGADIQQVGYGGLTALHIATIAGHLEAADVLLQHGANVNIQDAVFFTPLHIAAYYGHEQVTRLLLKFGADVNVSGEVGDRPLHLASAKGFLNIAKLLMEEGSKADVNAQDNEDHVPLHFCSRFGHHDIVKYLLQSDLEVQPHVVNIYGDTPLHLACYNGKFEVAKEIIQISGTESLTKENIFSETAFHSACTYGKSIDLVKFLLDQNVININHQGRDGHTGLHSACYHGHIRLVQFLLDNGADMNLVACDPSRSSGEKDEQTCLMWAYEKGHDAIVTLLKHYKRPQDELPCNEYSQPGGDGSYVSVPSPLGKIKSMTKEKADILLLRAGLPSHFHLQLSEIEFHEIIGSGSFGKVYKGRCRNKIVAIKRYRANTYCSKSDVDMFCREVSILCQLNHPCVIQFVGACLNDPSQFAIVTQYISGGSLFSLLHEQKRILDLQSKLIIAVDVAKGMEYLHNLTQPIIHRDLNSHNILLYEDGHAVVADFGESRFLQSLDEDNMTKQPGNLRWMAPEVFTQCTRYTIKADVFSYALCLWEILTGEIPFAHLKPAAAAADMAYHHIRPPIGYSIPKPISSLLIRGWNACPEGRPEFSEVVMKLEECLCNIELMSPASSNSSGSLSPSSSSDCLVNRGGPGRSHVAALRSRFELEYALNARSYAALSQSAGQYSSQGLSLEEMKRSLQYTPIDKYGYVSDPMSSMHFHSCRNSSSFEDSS

MRCKB = target: T2, MRCKB (Homo sapiens, UniProt Q9Y5S2)
T2 construct: gene CDC42BPB
T2 sequence (Q9Y5S2 whole entry): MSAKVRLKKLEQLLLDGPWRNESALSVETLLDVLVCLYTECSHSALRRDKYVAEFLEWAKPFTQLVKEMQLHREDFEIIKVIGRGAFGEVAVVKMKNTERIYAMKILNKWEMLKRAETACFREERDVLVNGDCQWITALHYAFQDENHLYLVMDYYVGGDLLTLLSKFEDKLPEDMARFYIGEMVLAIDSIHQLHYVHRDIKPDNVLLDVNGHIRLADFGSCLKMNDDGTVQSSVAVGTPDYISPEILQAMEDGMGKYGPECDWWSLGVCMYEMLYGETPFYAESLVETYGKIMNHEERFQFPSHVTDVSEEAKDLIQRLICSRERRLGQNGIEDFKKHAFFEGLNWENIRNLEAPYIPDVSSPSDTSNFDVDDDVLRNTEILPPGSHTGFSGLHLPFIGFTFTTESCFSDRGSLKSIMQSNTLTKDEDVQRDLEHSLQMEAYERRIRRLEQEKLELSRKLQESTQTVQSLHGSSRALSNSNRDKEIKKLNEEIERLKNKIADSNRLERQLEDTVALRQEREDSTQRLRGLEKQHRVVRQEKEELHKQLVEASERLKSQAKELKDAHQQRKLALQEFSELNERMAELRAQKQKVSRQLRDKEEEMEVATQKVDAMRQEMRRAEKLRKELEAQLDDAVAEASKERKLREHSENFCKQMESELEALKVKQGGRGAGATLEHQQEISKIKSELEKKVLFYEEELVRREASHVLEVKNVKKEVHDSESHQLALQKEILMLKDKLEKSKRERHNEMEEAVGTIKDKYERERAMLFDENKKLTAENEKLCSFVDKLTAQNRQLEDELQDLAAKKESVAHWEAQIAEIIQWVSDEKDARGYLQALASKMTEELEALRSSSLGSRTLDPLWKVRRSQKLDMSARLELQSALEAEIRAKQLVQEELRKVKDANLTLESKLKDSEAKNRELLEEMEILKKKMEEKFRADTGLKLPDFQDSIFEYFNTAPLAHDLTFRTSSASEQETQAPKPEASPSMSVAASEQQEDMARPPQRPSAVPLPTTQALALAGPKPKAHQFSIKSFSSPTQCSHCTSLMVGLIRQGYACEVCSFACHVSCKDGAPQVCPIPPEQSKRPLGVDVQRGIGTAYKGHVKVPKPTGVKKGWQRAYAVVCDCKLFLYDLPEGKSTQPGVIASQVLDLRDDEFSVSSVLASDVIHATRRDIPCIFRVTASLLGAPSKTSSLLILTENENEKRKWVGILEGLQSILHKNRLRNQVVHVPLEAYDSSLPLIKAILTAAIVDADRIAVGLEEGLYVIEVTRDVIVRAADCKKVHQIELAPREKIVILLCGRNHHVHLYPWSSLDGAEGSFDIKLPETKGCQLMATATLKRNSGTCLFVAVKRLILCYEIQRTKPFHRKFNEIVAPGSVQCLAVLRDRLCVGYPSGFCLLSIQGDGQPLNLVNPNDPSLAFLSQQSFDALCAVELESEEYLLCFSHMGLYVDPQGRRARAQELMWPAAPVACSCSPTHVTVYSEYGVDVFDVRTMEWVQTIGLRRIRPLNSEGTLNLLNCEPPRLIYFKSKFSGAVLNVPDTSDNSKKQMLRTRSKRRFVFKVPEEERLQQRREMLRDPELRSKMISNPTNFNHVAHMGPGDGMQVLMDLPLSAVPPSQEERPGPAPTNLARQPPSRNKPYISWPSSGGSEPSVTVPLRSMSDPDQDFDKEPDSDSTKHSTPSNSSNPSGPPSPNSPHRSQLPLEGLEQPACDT

TAK1 = target: T3, TAK1 (Homo sapiens, UniProt O43318)
T3 construct: gene MAP3K7
T3 sequence (O43318 whole entry): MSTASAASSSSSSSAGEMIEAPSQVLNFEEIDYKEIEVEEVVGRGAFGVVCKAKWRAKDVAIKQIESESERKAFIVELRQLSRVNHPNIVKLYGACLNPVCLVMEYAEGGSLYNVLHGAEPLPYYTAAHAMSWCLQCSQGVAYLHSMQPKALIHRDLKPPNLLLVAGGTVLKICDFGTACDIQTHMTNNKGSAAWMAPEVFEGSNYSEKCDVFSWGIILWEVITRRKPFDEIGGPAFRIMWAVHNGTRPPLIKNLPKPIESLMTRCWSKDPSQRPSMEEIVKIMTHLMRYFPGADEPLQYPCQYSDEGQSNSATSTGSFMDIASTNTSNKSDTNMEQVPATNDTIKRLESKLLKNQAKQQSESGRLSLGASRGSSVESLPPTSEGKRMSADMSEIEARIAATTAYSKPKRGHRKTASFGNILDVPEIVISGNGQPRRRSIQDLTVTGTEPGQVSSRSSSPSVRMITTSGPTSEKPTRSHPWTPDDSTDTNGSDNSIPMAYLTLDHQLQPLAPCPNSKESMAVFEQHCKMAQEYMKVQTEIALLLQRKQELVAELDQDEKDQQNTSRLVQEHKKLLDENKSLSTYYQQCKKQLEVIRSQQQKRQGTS

ABL1-phosphorylated = target: T4, ABL1-phosphorylated (Homo sapiens, UniProt P00519)
T4 construct: phosphorylated

MET = MET (Homo sapiens, UniProt P08581)
CDK7 = CDK7 (Homo sapiens, UniProt P50613)
[1] = target: T5, ABL1(Q252H)-phosphorylated (Homo sapiens, UniProt P00519, Q252H)
T5 construct: phosphorylated

IGF1R = IGF1R (Homo sapiens, UniProt P08069)
MAP3K15 = MAP3K15 (Homo sapiens, UniProt Q6ZN16)
ADCK3 = target: T6, ADCK3 (Homo sapiens, UniProt Q8NI60)
T6 construct: gene COQ8A
T6 sequence (Q8NI60 whole entry): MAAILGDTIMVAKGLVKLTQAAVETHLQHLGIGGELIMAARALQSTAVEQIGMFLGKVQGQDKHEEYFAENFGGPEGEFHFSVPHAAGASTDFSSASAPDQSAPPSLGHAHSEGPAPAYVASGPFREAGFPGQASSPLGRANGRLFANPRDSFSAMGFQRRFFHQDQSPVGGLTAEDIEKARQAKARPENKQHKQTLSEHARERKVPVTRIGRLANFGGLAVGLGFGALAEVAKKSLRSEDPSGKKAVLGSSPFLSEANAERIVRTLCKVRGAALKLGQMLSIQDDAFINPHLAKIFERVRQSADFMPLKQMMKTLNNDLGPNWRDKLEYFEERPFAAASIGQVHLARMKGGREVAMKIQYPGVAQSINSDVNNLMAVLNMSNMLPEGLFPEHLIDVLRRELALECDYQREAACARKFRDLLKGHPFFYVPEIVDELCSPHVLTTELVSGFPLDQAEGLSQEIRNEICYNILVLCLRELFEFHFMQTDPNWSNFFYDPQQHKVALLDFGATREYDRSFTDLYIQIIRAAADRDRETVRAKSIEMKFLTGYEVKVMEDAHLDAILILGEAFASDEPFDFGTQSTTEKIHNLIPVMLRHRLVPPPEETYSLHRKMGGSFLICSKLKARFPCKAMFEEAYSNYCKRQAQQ

MERTK = MERTK (Homo sapiens, UniProt Q12866)
HUNK = target: T7, HUNK (Homo sapiens, UniProt P57058)
T7 sequence (P57058 1-714): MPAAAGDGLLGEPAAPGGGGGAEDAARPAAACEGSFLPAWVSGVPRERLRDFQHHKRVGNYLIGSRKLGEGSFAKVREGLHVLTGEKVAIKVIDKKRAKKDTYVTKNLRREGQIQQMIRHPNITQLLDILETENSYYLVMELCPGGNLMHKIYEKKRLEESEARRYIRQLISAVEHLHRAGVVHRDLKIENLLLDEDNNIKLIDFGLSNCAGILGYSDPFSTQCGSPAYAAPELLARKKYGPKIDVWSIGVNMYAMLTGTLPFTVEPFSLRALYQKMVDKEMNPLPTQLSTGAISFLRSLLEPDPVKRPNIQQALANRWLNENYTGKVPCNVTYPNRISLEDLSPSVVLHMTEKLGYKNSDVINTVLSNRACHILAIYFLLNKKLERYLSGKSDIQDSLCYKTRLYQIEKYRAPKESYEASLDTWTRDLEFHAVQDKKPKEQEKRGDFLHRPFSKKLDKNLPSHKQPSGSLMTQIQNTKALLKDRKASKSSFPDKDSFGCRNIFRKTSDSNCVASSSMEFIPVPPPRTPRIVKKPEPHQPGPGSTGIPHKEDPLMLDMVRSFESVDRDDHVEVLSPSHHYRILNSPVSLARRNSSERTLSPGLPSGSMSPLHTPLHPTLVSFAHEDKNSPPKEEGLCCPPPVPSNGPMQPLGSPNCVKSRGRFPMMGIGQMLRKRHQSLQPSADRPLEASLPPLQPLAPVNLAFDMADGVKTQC

PKAC-beta = target: T8, PKAC-beta (Homo sapiens, UniProt P22694)
T8 construct: gene PRKACB

BMPR1B = BMPR1B (Homo sapiens, UniProt O00238)
Sequence of BMPR1B (O00238 whole entry): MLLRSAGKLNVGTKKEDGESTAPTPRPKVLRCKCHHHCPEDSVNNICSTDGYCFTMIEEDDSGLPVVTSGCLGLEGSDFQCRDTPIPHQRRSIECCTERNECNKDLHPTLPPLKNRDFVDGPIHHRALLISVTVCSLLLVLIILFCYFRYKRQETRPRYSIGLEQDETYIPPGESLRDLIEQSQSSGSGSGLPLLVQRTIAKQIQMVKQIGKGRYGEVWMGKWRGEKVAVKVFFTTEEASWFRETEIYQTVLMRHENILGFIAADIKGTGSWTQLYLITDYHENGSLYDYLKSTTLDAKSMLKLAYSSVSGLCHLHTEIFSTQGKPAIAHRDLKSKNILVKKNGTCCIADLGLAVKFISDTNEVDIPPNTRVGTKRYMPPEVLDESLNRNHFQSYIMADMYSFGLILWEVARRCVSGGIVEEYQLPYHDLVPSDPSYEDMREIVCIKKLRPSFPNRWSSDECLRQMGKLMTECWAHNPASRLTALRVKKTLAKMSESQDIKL

[2] = read-out: Percent control / Acalabrutinib
[3] = read-out: Percent control / Ibrutinib
[4] = read-out: Percent control / Tirabrutinib
[5] = read-out: Percent control / Zanubrutinib

Sequence of NLK (Q9UBE8 whole entry): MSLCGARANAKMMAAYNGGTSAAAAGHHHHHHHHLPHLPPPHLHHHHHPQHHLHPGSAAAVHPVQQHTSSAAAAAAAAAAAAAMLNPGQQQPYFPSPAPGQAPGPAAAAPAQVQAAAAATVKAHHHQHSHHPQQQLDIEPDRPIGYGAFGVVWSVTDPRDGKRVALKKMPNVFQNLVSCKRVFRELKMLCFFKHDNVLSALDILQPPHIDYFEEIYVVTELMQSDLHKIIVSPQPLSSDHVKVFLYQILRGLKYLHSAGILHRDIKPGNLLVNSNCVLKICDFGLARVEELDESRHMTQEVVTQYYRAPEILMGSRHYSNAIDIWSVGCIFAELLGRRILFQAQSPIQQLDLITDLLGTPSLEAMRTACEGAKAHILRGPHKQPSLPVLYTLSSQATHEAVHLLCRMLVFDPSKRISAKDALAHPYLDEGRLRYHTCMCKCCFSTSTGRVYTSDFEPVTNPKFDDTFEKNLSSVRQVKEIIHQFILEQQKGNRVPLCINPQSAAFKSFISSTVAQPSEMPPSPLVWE

CC#CC(=O)N1CCC[C@H]1c1nc(-c2ccc(C(=O)Nc3ccccn3)cc2)c2c(N)nccn12 [Acalabrutinib]
remaining binding at 0.3 µM (LIMK2; [2]): 96% | remaining binding at 0.3 µM (ACVR2B; [2]): 85% | remaining binding at 0.3 µM (NLK; [2]): 78% | remaining binding at 0.3 µM (JNK2; [2]): 95% | remaining binding at 0.3 µM (TNNI3K; [2]): 66% | remaining binding at 0.3 µM (MRCKB; [2]): 93% | remaining binding at 0.3 µM (TAK1; [2]): 86% | remaining binding at 0.3 µM (ABL1-phosphorylated; [2]): 95% | remaining binding at 0.3 µM (MET; [2]): 90% | remaining binding at 0.3 µM (CDK7; [2]): 68% | remaining binding at 0.3 µM [1, 2]: 86% | remaining binding at 0.3 µM (IGF1R; [2]): 91%

C=CC(=O)N1CCC[C@@H](n2nc(-c3ccc(Oc4ccccc4)cc3)c3c(N)ncnc32)C1 [Ibrutinib]
remaining binding at 0.3 µM (MAP3K15; [3]): 96% | remaining binding at 0.3 µM (ADCK3; [3]): 98% | remaining binding at 0.3 µM (MERTK; [3]): 70% | remaining binding at 0.3 µM (HUNK; [3]): 9% | remaining binding at 0.3 µM (PKAC-beta; [3]): 85%

CC#CC(=O)N1CC[C@@H](n2c(=O)n(-c3ccc(Oc4ccccc4)cc3)c3c(N)ncnc32)C1 [Tirabrutinib]
remaining binding at 0.3 µM (TNNI3K; [4]): 91% | remaining binding at 0.3 µM (ADCK3; [4]): 95% | remaining binding at 0.3 µM [1, 4]: 87% | remaining binding at 0.3 µM (HUNK; [4]): 11% | remaining binding at 0.3 µM (BMPR1B; [4]): 98%

C=CC(=O)N1CCC([C@@H]2CCNc3c(C(N)=O)c(-c4ccc(Oc5ccccc5)cc4)nn32)CC1 [Zanubrutinib]
remaining binding at 0.3 µM (LIMK2; [5]): 92% | remaining binding at 0.3 µM (ACVR2B; [5]): 91% | remaining binding at 0.3 µM (MAP3K15; [5]): 54% | remaining binding at 0.3 µM (NLK; [5]): 80% | remaining binding at 0.3 µM (JNK2; [5]): 100% | remaining binding at 0.3 µM (MRCKB; [5]): 90% | remaining binding at 0.3 µM (TAK1; [5]): 83% | remaining binding at 0.3 µM (ABL1-phosphorylated; [5]): 77% | remaining binding at 0.3 µM (MET; [5]): 96% | remaining binding at 0.3 µM (MERTK; [5]): 91% | remaining binding at 0.3 µM (CDK7; [5]): 100% | remaining binding at 0.3 µM (PKAC-beta; [5]): 82% | remaining binding at 0.3 µM (IGF1R; [5]): 96% | remaining binding at 0.3 µM (BMPR1B; [5]): 98%
